In patent publication US7074789B2, “Kinase inhibitors” (Amgen Inc., priority 1999, dated 2006):

Experiments:
Assay type in all cases: biochemical
Ret-1 = target: T1, Ret-1 (Homo sapiens, UniProt P07949); experiment: Kinase inhibition assay (33P transfer), Ret; conditions: Table 6, Ret-1 kinase inhibition class
T1 construct: Kinases are expressed as either kinase domains or full length constructs; made in house

EGFR = target: T2, EGFR (Homo sapiens, UniProt P00533); experiment: Kinase inhibition assay (33P transfer), EGFR; conditions: Table 2, kinase inhibition class; read-out: EGFR-1
T2 construct: Kinases are expressed as either kinase domains or full length constructs; made in house
Summary of the method: (§1)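 Recombinant kinase domains or full-length GST- or His-tagged constructs, from E. coli or baculovirus/High Five cells, sometimes with regulatory polypeptides. Transfer of 33P from ATP to plate-bound poly(Glu,Tyr) 4:1 or poly(Arg,Ser) 3:1 counted by liquid scintillation after phosphoric acid wash; IC50 is the concentration halving incorporation.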

FGFR1 = target: T3, FGFR1 (Homo sapiens, UniProt P11362); experiment: Kinase inhibition assay (33P transfer), FGFR1; conditions: read-out: FGFR1-1
T3 construct: Kinases are expressed as either kinase domains or full length constructs; made in house

Hck-1 = target: T4, Hck-1 (Homo sapiens, UniProt P08631); experiment: Kinase inhibition assay (33P transfer), Hck; conditions: Table 6, Hck-1 kinase inhibition class
T4 construct: Kinases are expressed as either kinase domains or full length constructs; made in house

IGFR-1 = target: T5, IGFR-1 (Homo sapiens, UniProt P08069); experiment: Kinase inhibition assay, IGFR-1 (Table 2); conditions: Table 2, kinase inhibition class
T5 construct: Kinases are expressed as either kinase domains or full length constructs; made in house

Fyn = target: T6, Fyn (Homo sapiens, UniProt P06241); experiment: Kinase inhibition assay (33P transfer), Fyn; conditions: read-out: Fyn-1
T6 construct: Kinases are expressed as either kinase domains or full length constructs; made in house
Summary of the method: as §1

Lyn = target: T7, Lyn (Homo sapiens, UniProt P07948); experiment: Kinase inhibition assay (33P transfer), Lyn; conditions: Table 6, Lyn-1 kinase inhibition class
T7 construct: Kinases are expressed as either kinase domains or full length constructs; made in house
Summary of the method: as §1

ErbB4 = target: T8, ErbB4 (Homo sapiens, UniProt Q15303); experiment: Kinase inhibition assay (33P transfer), ErbB4; conditions: read-out: ErbB4-1
T8 construct: Kinases are expressed as either kinase domains or full length constructs; made in house

c-Met = target: T9, c-Met (Homo sapiens, UniProt P08581); experiment: Kinase inhibition assay (33P transfer), c-Met; conditions: Table 2, kinase inhibition class; read-out: Met-1
T9 construct: Kinases are expressed as either kinase domains or full length constructs; made in house
Summary of the method: as §1

Flt-1 = target: T10, Flt-1 (Homo sapiens, UniProt P17948); experiment: Kinase inhibition assay (33P transfer), Flt-1
T10 construct: Kinases are expressed as either kinase domains or full length constructs; made in house
Summary of the method: as §1

Src = target: T11, Src (Homo sapiens, UniProt P12931); experiment: Kinase inhibition assay (33P transfer), Src; conditions: Table 6, Src-1 kinase inhibition class
T11 construct: Kinases are expressed as either kinase domains or full length constructs; made in house
Summary of the method: as §1

Kdr = target: T12, Kdr (Homo sapiens, UniProt P35968); experiment: Kinase inhibition assay (33P transfer), Kdr; conditions: read-out: KDR-1
T12 construct: Kinases are expressed as either kinase domains or full length constructs; made in house
Summary of the method: (§2)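 Activity was read as 33P incorporation, counted by liquid scintillation after a 0.5% phosphoric acid wash, into poly(Glu,Tyr) 4:1 or poly(Arg,Ser) 3:1 substrates coated on plates. Enzymes were tagged (GST or polyHis) kinase domains or full-length proteins from bacterial or insect-cell expression, sometimes with regulatory polypeptides.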

ErbB2 = target: T13, ErbB2 (Homo sapiens, UniProt P04626); experiment: Kinase inhibition assay (33P transfer), ErbB2; conditions: read-out: ErbB2-2
T13 construct: Kinases are expressed as either kinase domains or full length constructs; made in house
Summary of the method: as §1

Tek = target: T14, Tek (Homo sapiens, UniProt Q02763); experiment: Kinase inhibition assay (33P transfer), Tek; conditions: read-out: Tek-1
T14 construct: Kinases are expressed as either kinase domains or full length constructs; made in house
Summary of the method: as §1

AKT = target: T15, AKT (Homo sapiens, UniProt Q9Y243); experiment: Kinase inhibition assay (33P transfer), AKT; conditions: Table 2, kinase inhibition class; read-out: AKT3-1
T15 construct: Kinases are expressed as either kinase domains or full length constructs; made in house
Summary of the method: as §2

PDGFRB = target: T16, PDGFRB (Homo sapiens, UniProt P09619); experiment: Kinase inhibition assay (33P transfer), PDGFRB; conditions: read-out: PDGFRB-1
T16 construct: Kinases are expressed as either kinase domains or full length constructs; made in house

Lck = target: T17, Lck (Homo sapiens, UniProt P06239); experiment: Kinase inhibition assay (33P transfer), Lck; conditions: read-out: Lck-1
T17 construct: Kinases are expressed as either kinase domains or full length constructs; made in house
Summary of the method: as §2

Itk = target: T18, Itk (Homo sapiens, UniProt Q08881); experiment: Kinase inhibition assay (33P transfer), Itk; conditions: read-out: Itk-1
T18 construct: Kinases are expressed as either kinase domains or full length constructs; made in house
T18 sequence (Q08881 1-620): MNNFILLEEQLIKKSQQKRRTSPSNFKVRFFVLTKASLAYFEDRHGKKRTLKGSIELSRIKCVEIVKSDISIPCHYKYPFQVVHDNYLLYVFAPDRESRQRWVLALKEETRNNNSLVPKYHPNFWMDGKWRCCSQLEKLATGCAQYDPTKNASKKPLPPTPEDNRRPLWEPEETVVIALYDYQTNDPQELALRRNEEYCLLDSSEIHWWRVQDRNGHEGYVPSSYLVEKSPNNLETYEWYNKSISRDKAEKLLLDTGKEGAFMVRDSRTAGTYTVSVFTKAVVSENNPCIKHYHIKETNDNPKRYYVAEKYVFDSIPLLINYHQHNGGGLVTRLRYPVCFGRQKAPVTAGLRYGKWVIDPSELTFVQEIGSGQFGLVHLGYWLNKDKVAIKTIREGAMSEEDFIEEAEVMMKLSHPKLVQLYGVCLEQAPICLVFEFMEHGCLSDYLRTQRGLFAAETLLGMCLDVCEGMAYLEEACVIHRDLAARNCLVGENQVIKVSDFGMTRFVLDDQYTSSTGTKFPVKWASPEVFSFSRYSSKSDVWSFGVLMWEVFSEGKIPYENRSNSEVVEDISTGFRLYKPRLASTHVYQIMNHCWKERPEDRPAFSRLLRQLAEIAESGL
Summary of the method: as §1

Zap-70 = target: T19, Zap-70 (Homo sapiens, UniProt P43403); experiment: Kinase inhibition assay (33P transfer), Zap-70; conditions: read-out: Zap-1
T19 construct: Kinases are expressed as either kinase domains or full length constructs; made in house
T19 sequence (P43403 1-619): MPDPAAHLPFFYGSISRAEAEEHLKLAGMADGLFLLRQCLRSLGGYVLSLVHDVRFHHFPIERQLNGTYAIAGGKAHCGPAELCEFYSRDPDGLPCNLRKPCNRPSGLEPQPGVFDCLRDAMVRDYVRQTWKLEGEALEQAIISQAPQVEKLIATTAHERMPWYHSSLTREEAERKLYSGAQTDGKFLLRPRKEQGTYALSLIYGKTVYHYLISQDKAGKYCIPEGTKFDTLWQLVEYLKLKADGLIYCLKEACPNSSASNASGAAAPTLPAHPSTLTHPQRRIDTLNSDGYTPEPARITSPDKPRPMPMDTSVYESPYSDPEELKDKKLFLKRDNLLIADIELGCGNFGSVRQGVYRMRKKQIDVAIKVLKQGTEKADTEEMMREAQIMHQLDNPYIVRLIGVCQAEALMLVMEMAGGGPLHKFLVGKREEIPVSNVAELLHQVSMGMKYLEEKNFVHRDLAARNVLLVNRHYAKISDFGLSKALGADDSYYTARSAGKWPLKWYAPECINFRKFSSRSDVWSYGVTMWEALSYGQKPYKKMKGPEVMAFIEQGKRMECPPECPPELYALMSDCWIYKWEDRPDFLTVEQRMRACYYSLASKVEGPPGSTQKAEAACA
Summary of the method: as §2

T15 sequence (Q9Y243 whole entry, the tested form may be a part): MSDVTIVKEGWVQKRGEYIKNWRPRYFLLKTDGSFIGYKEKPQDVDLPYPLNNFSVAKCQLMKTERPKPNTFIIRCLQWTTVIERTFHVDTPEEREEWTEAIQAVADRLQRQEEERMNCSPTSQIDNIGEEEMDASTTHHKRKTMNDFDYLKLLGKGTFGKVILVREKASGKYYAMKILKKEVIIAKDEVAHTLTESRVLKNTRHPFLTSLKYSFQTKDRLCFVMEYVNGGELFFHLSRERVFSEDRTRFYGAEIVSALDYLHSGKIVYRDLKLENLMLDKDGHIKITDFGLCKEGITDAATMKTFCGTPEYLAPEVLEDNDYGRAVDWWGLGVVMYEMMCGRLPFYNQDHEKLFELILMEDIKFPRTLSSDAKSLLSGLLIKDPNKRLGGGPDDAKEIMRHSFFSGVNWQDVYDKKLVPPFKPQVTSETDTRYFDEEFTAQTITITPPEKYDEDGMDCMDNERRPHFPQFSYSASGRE
T12 sequence (P35968 20-1356, species assumed): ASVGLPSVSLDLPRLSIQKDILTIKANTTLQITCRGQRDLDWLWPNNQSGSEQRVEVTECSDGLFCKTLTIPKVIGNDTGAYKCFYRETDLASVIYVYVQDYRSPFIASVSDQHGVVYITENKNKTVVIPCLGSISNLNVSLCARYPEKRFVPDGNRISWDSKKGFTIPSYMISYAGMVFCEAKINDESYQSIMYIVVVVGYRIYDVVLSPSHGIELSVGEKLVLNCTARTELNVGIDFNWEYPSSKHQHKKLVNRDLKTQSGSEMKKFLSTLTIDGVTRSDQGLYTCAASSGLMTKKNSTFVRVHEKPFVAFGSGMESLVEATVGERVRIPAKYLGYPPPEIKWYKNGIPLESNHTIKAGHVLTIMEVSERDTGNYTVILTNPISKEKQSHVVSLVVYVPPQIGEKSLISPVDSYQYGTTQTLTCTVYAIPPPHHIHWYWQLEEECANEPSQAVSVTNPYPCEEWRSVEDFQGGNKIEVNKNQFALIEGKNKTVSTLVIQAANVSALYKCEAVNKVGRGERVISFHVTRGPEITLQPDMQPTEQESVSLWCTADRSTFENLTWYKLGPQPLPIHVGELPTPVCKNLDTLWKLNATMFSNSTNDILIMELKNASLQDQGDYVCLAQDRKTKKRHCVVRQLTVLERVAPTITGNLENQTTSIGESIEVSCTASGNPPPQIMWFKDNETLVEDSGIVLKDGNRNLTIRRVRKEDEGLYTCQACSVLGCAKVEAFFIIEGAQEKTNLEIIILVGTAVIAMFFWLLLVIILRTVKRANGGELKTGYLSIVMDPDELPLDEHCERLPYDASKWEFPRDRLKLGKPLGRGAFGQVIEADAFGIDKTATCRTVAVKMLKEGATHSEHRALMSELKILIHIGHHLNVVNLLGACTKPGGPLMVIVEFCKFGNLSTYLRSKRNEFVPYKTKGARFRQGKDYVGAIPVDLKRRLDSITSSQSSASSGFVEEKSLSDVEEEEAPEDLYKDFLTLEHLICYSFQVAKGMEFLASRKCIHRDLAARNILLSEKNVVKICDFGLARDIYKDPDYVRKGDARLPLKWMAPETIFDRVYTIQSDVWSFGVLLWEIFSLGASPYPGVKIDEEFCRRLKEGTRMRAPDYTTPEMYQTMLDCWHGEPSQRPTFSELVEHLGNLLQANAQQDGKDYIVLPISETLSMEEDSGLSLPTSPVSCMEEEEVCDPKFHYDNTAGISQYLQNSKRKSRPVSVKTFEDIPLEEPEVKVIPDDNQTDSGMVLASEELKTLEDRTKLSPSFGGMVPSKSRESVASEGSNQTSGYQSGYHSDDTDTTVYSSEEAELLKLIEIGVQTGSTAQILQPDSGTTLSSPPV
T10 sequence (P17948 27-1338, species assumed): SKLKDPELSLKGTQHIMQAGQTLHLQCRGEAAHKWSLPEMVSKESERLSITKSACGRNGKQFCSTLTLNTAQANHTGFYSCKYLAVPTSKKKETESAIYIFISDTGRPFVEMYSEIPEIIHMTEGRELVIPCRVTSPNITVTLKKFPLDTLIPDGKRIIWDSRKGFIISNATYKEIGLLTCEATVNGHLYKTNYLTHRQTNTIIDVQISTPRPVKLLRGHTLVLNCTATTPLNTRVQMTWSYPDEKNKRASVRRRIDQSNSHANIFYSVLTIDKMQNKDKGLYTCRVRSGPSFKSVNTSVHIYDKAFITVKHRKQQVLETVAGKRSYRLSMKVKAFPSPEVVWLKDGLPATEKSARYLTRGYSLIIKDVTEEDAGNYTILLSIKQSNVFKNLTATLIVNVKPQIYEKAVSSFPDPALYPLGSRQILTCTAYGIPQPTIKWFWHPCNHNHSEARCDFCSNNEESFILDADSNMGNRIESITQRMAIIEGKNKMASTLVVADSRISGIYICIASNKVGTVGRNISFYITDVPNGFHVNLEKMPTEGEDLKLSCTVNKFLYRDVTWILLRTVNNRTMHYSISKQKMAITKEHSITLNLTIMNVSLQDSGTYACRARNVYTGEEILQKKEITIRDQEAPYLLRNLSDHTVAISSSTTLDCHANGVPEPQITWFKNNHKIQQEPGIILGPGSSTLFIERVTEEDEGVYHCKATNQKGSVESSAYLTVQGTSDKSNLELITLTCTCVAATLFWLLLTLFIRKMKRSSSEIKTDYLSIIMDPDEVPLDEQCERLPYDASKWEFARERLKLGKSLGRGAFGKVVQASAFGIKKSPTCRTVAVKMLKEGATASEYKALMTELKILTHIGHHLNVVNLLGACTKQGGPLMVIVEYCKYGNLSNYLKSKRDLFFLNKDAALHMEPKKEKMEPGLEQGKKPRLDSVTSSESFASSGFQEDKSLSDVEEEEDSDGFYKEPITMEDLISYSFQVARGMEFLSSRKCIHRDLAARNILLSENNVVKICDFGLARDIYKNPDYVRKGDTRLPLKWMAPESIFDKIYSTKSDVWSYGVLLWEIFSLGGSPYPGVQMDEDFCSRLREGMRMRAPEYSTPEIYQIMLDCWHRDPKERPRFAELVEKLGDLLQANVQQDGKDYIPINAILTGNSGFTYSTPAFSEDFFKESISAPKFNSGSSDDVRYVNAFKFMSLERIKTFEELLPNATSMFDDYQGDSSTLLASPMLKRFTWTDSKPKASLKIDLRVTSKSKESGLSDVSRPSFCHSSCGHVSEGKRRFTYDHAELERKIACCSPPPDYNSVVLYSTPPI
T8 sequence (Q15303 26-1308, species assumed): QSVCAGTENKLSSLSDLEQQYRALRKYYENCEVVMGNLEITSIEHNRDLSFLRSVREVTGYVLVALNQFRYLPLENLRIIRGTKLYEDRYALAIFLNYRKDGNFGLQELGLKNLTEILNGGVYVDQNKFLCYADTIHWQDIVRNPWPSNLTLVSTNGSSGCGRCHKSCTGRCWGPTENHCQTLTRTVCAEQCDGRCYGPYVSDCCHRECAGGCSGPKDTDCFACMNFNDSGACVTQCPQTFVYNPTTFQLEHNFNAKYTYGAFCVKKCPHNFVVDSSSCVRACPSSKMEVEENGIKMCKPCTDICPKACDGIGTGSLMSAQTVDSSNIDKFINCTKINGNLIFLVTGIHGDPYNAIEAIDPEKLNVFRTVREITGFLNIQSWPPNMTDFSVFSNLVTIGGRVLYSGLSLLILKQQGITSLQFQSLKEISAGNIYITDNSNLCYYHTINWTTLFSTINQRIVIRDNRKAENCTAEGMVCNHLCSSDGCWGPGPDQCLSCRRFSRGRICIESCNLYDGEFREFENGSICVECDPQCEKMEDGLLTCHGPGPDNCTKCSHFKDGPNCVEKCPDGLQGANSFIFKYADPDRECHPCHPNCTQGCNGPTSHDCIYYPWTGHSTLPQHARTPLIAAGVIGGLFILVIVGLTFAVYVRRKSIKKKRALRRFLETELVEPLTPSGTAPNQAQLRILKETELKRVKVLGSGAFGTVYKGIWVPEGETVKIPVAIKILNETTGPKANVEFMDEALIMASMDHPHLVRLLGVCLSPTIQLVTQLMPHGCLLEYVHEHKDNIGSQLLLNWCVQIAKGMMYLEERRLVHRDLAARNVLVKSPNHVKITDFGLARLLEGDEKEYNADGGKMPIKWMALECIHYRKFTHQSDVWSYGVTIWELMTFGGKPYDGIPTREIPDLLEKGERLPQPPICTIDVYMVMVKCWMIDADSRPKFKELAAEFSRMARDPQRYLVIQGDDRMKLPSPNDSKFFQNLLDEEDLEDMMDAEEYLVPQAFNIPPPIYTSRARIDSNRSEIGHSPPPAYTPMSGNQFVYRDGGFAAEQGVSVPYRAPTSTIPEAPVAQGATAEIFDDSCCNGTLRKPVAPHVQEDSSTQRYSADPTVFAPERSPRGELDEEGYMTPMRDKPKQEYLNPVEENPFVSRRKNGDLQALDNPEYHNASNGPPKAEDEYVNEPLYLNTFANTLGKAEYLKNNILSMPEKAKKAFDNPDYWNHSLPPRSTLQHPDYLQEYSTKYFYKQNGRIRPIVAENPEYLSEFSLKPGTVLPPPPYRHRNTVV
T17 sequence (P06239 whole entry, species assumed, the tested form may be a part): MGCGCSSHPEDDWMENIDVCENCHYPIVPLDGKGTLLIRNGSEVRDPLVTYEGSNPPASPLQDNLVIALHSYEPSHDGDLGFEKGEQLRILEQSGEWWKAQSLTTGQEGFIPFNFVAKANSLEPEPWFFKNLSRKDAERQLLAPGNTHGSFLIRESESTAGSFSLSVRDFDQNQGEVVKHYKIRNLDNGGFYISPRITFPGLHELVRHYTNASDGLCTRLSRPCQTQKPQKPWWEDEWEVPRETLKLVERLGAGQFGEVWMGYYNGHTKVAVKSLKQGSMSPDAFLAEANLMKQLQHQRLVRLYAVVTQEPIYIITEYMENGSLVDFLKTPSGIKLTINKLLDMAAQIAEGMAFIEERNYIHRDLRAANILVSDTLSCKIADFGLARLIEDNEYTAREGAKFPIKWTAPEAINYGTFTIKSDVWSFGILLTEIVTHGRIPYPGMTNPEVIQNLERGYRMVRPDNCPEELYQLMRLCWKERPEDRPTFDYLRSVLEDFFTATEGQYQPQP

Row | SMILES | IC50 (Ret-1) [µM] | IC50 (EGFR) [µM] | IC50 (FGFR1) [µM] | IC50 (Hck-1) [µM] | IC50 (IGFR-1) [µM] | IC50 (Fyn) [µM] | IC50 (Lyn) [µM] | IC50 (ErbB4) [µM] | IC50 (c-Met) [µM] | IC50 (Flt-1) [µM] | IC50 (Src) [µM] | IC50 (Kdr) [µM] | IC50 (ErbB2) [µM] | IC50 (Tek) [µM] | IC50 (AKT) [µM] | IC50 (PDGFRB) [µM] | IC50 (Lck) [µM] | IC50 (Itk) [µM] | IC50 (Zap-70) [µM]
1 | COc1cc(Nc2ncnc(-n3c(NCc4ccc([N+](=O)[O-])cc4)nc4ccccc43)n2)cc(OC)c1OC [Compound 952] | < 0.757 | > 8.51 | 0.757 to 4.54 | 6.62 to 8.51 | 0.757 to 4.54 | 4.54 to 6.62 | < 0.757 | > 8.51 | > 8.51 | 0.757 to 4.54 | 6.62 to 8.51 | < 0.757 | 4.54 to 6.62 | 4.54 to 6.62 | > 8.51 | 0.757 to 4.54 | 4.54 to 6.62 | 6.62 to 8.51 | > 8.51
2 | COc1ccc(Nc2ncccc2-c2ncnc(Nc3cc(OC)c(OC)c(OC)c3)n2)c(C)c1 [Compound 1086] | 7.38 to 9.48 | > 9.48 | > 9.48 | > 9.48 | > 9.48 | > 9.48 | > 9.48 | > 9.48 | > 9.48 | 5.06 to 7.38 | > 9.48 | < 0.843 | 7.38 to 9.48 | 7.38 to 9.48 | > 9.48 | > 9.48 | 5.06 to 7.38 | > 9.48 | > 9.48
3 | COc1cc(Nc2ncnc(-c3cccnc3NC(C)C)n2)cc(OC)c1OC [Compound 1089] | < 1.01 | > 11.4 | > 11.4 | > 11.4 | > 11.4 | 1.01 to 6.05 | < 1.01 | > 11.4 | > 11.4 | > 11.4 | 1.01 to 6.05 | < 1.01 | > 11.4 | > 11.4 | > 11.4 | < 1.01 | < 1.01 | 6.05 to 8.83 | > 11.4
4 | COc1cc(Nc2ncnc(-n3c(=O)[nH]c4ccccc43)n2)cc(OC)c1OCCN1CCOCC1 [Compound 1040] | 4.86 to 7.09 | 4.86 to 7.09 | 0.81 to 4.86 | > 9.12 | 7.09 to 9.12 | 0.81 to 4.86 | > 9.12 | 4.86 to 7.09 | > 9.12 | 0.81 to 4.86 | 0.81 to 4.86 | < 0.81 | 4.86 to 7.09 | > 9.12 | > 9.12 | < 0.81 | 0.81 to 4.86 | 0.81 to 4.86 | > 9.12
5 | COc1cc(Nc2ncnc(-n3c(N[C@@H](CO)c4ccccc4)nc4ccccc43)n2)cc(OC)c1OC [Compound 1036] | < 0.779 | 0.779 to 4.67 | < 0.779 | > 8.76 | 6.82 to 8.76 | 0.779 to 4.67 | < 0.779 | 4.67 to 6.82 | > 8.76 | < 0.779 | 0.779 to 4.67 | < 0.779 | 0.779 to 4.67 | 4.67 to 6.82 | > 8.76 | < 0.779 | < 0.779 | > 8.76 | > 8.76
6 | COc1cc(Nc2ncnc(-n3c(NCc4ccc(C)cc4)nc4ccccc43)n2)cc(OC)c1OC [Compound 516] | < 0.804 | > 9.04 | < 0.804 | > 9.04 | > 9.04 | > 9.04 | > 9.04 | > 9.04 | > 9.04 | 4.82 to 7.03 | > 9.04 | < 0.804 | > 9.04 | > 9.04 | > 9.04 | 7.03 to 9.04 | 4.82 to 7.03 | > 9.04 | > 9.04
7 | COc1cc(Nc2ncnc(Nc3cccc4ccccc34)n2)cc(OCCN2CCOCC2)c1OC [Compound 953] | 0.796 to 4.78 | < 0.796 | 0.796 to 4.78 | 0.796 to 4.78 | 4.78 to 6.96 | < 0.796 | < 0.796 | 0.796 to 4.78 | > 8.95 | 0.796 to 4.78 | < 0.796 | 0.796 to 4.78 | 0.796 to 4.78 | 0.796 to 4.78 | > 8.95 | < 0.796 | < 0.796 | 6.96 to 8.95 | > 8.95
